Results taken from patent US12427210B2, “Compounds comprising a fibroblast activation protein ligand and use thereof” (priority 2019, dated 2025).
Blank lines part the entries; values can stand above or below the molecule they belong to.

Columns and labels:
[1] = biological target: T1, Ubiquitin carboxyl-terminal hydrolase 8 (Homo sapiens, UniProt P40818); settings: 1 μM
T1 sequence (P40818 1-1118): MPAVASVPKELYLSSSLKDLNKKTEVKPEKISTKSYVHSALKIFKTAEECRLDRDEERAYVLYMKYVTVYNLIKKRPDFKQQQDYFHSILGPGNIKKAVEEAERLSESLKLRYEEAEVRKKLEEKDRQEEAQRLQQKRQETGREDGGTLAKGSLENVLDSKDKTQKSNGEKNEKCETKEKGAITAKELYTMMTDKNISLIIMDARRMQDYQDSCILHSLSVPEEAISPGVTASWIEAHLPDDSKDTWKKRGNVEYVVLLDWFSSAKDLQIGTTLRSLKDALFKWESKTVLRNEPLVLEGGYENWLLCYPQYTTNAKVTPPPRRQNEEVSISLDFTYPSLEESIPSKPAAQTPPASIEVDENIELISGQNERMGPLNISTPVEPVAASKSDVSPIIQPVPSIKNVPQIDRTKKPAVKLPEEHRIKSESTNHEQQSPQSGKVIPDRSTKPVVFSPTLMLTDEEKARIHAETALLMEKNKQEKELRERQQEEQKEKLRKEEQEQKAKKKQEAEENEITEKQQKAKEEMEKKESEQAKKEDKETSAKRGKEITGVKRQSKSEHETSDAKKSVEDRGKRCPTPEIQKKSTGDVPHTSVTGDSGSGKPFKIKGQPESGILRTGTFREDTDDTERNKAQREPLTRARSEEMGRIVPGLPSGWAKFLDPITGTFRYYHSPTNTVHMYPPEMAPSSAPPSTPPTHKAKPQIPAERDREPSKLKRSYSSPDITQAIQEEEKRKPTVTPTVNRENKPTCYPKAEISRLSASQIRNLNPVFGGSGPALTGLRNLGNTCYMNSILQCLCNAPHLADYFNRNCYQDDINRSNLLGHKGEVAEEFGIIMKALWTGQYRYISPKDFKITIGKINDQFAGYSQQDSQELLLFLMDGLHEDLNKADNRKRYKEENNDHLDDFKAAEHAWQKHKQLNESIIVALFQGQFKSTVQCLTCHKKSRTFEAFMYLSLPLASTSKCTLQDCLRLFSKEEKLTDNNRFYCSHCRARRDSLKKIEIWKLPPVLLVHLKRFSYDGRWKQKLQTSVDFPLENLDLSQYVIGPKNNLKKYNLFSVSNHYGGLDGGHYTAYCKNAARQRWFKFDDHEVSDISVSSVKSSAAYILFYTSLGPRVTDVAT

[2] = biological target: Ubiquitin carboxyl-terminal hydrolase 14 (Homo sapiens, UniProt P54578); settings: 100 nM
[3] = biological target: T2, Deubiquitinase OTUD6B (Homo sapiens, UniProt Q8N6M0); settings: 1 μM
T2 sequence (Q8N6M0 1-293): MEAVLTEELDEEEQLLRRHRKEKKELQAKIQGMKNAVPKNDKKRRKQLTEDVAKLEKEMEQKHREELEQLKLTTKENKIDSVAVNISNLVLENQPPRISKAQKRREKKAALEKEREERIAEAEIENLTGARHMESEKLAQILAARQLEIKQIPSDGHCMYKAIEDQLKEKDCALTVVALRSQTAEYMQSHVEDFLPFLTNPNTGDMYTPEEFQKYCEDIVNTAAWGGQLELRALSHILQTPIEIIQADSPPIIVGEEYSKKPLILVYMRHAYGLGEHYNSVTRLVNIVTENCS

[4] = biological target: T3, Ubiquitin carboxyl-terminal hydrolase 5 (Homo sapiens, UniProt P45974); settings: 1 μM
T3 sequence (P45974 1-858): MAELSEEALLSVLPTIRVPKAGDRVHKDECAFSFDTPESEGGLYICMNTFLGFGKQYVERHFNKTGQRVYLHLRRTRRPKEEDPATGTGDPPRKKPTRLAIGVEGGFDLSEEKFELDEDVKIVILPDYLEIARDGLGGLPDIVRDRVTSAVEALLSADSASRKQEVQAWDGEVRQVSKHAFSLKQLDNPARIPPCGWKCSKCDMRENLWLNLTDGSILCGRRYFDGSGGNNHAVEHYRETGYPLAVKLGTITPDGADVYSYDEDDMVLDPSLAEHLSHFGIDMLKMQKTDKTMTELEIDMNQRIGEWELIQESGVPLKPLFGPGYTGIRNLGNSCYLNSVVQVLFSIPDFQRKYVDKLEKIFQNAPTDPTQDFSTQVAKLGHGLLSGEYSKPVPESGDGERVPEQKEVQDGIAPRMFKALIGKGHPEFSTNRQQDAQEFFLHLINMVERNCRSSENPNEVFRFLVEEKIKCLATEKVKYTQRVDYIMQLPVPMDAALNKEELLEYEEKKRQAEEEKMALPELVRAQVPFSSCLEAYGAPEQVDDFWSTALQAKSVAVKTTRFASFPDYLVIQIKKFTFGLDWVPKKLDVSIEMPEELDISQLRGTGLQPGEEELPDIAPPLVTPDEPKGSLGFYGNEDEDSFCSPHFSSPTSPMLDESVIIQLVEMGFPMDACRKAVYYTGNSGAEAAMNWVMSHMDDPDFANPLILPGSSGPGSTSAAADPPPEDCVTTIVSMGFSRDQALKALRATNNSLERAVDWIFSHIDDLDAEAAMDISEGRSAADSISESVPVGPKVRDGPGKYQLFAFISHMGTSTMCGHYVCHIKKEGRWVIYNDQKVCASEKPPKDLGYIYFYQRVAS

[5] = biological target: T4, Ubiquitin carboxy-terminal hydrolase L3 (Homo sapiens, UniProt P15374); settings: 10 nM
T4 sequence (P15374 1-230): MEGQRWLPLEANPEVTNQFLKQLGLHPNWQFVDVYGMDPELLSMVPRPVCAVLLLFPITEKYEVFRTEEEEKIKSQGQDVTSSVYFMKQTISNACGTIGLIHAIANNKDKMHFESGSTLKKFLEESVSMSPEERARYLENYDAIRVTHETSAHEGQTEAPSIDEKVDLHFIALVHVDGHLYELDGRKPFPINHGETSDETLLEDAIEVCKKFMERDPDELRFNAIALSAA

[6] = biological target: Ataxin3 (Homo sapiens, UniProt P54252); settings: 10 μM
[7] = biological target: Ubiquitin carboxyl-terminal hydrolase 10 (Homo sapiens, UniProt Q14694); settings: 1 μM
[8] = biological target: T5, Ubiquitin carboxyl-terminal hydrolase 2 (Homo sapiens, UniProt O75604); settings: 1 μM
T5 sequence (O75604 1-605): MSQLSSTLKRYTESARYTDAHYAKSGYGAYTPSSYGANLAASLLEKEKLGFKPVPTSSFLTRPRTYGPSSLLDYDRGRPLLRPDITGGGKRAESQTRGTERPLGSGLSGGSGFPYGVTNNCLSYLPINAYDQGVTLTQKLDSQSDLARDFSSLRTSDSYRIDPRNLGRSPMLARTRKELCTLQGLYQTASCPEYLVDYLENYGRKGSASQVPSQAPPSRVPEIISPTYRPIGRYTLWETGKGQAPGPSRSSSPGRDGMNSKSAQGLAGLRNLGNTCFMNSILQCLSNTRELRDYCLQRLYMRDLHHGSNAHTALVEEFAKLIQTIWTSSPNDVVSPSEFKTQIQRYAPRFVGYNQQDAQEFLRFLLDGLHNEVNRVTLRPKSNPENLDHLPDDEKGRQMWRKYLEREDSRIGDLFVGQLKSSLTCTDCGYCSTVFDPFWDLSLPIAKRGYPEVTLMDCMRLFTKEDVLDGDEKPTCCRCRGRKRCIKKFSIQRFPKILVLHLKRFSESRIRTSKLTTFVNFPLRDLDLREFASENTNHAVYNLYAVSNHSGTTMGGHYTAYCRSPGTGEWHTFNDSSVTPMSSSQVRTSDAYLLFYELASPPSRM

[9] = biological target: Ubiquitin carboxyl-terminal hydrolase 7 (Homo sapiens, UniProt Q93009); settings: 1 μM
[10] = biological target: T6, Ubiquitin carboxy-terminal hydrolase L1 (Homo sapiens, UniProt P09936); settings: 100 nM
T6 sequence (P09936 1-223): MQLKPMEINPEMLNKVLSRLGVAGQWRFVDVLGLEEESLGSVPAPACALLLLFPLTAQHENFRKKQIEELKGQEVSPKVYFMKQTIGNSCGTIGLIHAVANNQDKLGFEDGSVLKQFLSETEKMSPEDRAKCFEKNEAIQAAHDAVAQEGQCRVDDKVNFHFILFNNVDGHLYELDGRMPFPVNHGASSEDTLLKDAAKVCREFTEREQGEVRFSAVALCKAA

[11] = biological target: DPP8 (Homo sapiens, UniProt Q6V1X1); settings: 200 μM
[12] = biological target: DPP7 (Homo sapiens, UniProt Q9UHL4); settings: 200 μM
[13] = biological target: serine protease NS3 (a.a. 3-181) from Hepatitis C virus genotype 2a (Hepatitis C virus genotype 2a, UniProt Q99IB8); settings: 100 nM
[14] = test system: serine protease NS3 (a.a. 3-181) from Hepatitis C virus genotype 1a (mutant D168V); settings: Reference, 100 nM
[15] = test system: serine protease NS3 (a.a. 3-181) from Hepatitis C virus genotype 1b; settings: Reference, 100 nM
[16] = biological target: FAP (Homo sapiens, UniProt Q12884); settings: 100 nM
Sequence of FAP (Q12884 whole entry): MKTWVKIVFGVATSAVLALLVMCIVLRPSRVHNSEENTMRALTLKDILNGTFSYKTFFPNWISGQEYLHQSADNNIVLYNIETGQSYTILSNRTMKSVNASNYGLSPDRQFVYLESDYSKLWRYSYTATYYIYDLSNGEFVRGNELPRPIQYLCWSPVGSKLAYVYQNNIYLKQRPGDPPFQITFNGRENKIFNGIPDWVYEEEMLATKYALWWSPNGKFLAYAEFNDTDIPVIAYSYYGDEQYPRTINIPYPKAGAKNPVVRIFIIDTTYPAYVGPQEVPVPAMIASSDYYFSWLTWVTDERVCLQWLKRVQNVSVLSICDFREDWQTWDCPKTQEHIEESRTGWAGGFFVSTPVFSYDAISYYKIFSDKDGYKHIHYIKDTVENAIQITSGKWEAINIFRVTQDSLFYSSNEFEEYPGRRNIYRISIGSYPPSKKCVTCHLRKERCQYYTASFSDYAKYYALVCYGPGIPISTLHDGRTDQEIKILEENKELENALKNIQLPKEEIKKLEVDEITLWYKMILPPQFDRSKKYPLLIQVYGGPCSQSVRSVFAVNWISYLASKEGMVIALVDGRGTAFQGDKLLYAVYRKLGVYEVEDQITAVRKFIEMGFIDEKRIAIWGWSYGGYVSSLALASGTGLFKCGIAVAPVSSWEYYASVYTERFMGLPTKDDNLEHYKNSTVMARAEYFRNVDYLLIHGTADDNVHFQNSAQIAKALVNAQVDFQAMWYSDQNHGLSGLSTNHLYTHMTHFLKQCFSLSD

Sequence of DPP8 (Q6V1X1 whole entry, species assumed): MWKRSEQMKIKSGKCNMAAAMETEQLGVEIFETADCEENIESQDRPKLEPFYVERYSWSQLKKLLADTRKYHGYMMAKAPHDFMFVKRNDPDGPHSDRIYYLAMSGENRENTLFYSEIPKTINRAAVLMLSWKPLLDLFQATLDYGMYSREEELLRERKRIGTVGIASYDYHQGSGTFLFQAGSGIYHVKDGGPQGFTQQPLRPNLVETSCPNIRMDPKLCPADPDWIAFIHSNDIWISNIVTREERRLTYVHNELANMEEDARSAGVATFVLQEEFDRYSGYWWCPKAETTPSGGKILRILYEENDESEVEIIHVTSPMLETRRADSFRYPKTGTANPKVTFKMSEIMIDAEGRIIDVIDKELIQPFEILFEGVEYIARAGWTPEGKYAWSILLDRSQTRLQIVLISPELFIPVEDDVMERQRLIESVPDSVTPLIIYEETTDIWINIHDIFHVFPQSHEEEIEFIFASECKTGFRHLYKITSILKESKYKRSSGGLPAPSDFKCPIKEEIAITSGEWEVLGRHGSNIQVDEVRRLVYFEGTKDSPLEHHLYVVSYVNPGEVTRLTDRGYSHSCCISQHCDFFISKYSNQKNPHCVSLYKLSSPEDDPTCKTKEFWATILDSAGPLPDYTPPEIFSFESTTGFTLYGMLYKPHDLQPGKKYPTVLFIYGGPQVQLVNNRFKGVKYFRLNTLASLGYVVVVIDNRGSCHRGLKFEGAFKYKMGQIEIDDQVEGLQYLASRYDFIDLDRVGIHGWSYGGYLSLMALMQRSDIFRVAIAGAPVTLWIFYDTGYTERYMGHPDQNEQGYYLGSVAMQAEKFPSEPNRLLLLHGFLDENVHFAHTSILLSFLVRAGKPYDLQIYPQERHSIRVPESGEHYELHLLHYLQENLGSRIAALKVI
Sequence of serine protease NS3 (a.a. 3-181) from Hepatitis C virus genotype 2a (Q99IB8 1033-1211 limits assumed, other chains not shown): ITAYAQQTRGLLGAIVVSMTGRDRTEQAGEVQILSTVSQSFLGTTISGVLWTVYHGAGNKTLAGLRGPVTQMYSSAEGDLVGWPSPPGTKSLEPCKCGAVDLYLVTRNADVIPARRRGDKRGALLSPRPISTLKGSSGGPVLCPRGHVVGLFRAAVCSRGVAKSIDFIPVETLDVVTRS
Sequence of Ubiquitin carboxyl-terminal hydrolase 14 (P54578 whole entry): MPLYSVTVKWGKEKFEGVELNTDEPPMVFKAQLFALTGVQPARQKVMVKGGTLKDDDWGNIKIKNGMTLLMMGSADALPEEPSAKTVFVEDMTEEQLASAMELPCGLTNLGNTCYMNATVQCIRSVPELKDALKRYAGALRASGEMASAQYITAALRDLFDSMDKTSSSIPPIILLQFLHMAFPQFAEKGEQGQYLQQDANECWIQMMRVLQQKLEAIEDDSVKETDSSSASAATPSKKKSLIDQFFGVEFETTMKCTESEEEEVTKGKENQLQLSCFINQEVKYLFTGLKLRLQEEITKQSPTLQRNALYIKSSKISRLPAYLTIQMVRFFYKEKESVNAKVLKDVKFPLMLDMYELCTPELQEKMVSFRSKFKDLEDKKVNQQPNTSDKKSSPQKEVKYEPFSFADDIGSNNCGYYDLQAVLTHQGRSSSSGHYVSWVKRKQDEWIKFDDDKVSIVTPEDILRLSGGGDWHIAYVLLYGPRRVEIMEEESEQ
Sequence of Ubiquitin carboxyl-terminal hydrolase 7 (Q93009 whole entry): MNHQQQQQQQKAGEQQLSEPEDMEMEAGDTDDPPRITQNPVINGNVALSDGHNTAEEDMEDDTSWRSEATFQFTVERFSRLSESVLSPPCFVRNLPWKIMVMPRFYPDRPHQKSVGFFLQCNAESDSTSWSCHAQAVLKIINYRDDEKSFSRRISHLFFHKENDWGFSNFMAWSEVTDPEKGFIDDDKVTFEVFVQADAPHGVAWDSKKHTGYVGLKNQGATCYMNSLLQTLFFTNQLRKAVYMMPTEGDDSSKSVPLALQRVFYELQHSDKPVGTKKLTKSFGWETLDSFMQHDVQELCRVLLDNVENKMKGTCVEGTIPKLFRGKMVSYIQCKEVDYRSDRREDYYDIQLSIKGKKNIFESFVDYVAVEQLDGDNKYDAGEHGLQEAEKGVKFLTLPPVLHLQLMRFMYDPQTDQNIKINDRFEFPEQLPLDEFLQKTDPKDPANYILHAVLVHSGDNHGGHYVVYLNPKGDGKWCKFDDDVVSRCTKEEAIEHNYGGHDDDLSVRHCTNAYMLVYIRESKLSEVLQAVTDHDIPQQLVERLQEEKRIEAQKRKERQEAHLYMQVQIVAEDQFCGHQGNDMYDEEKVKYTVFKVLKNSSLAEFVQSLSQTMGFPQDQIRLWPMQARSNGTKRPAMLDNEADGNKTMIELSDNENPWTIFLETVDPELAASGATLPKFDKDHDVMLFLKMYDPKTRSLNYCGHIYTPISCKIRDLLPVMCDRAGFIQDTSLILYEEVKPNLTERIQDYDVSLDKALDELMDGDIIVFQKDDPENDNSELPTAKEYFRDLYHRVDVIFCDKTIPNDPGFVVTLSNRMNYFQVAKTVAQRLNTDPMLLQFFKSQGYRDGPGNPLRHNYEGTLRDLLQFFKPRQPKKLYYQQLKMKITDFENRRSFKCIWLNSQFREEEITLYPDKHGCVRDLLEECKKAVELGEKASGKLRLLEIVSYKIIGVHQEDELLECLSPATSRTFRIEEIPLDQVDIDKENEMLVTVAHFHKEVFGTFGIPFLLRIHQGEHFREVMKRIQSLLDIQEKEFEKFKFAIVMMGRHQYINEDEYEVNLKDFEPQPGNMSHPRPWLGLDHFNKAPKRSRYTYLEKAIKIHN
Sequence of Ataxin3 (P54252 whole entry, species assumed): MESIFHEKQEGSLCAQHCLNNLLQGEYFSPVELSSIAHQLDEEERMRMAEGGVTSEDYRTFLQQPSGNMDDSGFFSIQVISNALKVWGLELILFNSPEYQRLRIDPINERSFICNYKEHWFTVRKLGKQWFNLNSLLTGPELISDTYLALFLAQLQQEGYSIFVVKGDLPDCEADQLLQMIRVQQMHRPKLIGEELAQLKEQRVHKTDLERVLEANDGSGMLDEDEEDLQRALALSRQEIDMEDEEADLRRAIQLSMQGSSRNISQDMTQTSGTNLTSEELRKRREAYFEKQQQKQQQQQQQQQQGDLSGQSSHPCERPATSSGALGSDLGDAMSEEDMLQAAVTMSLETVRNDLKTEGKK
Sequence of Ubiquitin carboxyl-terminal hydrolase 10 (Q14694 whole entry): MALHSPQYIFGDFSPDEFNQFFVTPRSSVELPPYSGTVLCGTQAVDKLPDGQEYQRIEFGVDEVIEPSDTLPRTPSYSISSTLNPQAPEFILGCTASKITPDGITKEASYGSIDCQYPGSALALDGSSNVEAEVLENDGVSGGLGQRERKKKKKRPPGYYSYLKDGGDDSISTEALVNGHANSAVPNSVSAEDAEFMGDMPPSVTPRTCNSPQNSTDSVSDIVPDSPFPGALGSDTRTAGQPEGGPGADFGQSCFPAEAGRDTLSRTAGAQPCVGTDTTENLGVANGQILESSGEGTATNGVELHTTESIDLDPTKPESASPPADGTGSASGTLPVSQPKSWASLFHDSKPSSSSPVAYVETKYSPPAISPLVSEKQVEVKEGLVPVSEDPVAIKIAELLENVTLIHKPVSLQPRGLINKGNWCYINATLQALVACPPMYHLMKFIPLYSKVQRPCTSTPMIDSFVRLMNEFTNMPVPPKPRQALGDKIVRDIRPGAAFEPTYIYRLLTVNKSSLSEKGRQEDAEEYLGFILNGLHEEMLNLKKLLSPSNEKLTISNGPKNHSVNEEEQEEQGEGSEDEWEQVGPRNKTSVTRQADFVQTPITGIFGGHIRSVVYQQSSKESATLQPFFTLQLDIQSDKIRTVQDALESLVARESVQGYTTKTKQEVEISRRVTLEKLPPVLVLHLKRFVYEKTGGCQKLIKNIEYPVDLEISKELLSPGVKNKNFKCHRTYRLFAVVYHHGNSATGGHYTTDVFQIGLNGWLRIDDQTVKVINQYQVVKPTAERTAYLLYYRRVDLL

Percentage inhibition (%), Reference [1]: 73% | Percentage inhibition (%), Reference [2]: 96% | Percentage inhibition (%), Reference [3]: 97% | Percentage inhibition (%), Reference [4]: 84% | Percentage inhibition (%), Reference [5]: 95% | Percentage inhibition (%), Reference [7]: 82% | Percentage inhibition (%), Reference [8]: 91% | Percentage inhibition (%), Reference [9]: 95% | Percentage inhibition (%), Reference [10]: 92%
Molecule: Ub-Aldehyde
Percentage inhibition (%), Reference [6]: 77%

Molecule: N#Cc1ccc(NCCNCC(=O)N2N=CCC2C#N)nc1 (stereo not shown) [KR62436]
Percentage inhibition (%), Reference [11]: 96% | Percentage inhibition (%), Reference [12]: 83%

Molecule: CC(C)(C)OC(=O)N[C@H]1CCCCC/C=C\[C@@H]2C[C@@]2(C(=O)NS(=O)(=O)C2CC2)NC(=O)[C@@H]2C[C@@H](OC(=O)N3Cc4cccc(F)c4C3)CN2C1=O [Denoprevir, reference compound]
Percentage inhibition (%), Reference [13]: 98% | Percentage inhibition (%), Reference [14]: 94% | Percentage inhibition (%), Reference [15]: 100%

Molecule: N#C[C@@H]1CC(F)(F)CN1C(=O)CNC(=O)c1ccnc2ccccc12 [SP-13786]
Percentage inhibition (%), Reference [16]: 100%
